{"source": "ChEMBL document CHEMBL5316276", "about": "“Discovery of the First Lactate Dehydrogenase Proteolysis Targeting Chimera Degrader for the Treatment of Pancreatic Cancer” (J Med Chem, 2023)", "key": {"[1]": {"target": "T1, von Hippel-Lindau disease tumor suppressor/L-lactate dehydrogenase A chain (Homo sapiens) (UniProt P00338+P40337)", "test": "Protac activity at VHL E3 ligase/LDHA in human PANC-1 cells assessed as induction of LDHA degradation at 10 uM incubated for 48 hrs by Western blotting analysis", "assay_type": "cell-based"}, "[2]": {"target": "T1, von Hippel-Lindau disease tumor suppressor/L-lactate dehydrogenase A chain (Homo sapiens)", "test": "Protac activity at VHL E3 ligase/LDHA in human MIA PaCa-2 cells assessed as induction of LDHA degradation at 0.3 to 3 uM incubated for 24 hrs by Western blotting analysis", "assay_type": "cell-based", "conditions": "dose 0.3-3 µM"}, "[3]": {"tested_on": "PANC-1", "test": "Antiproliferative activity against human PANC-1 cells assessed as cell growth inhibition incubated for 72 hrs by WST-8 assay", "assay_type": "functional"}, "[4]": {"tested_on": "BXPC-3", "test": "Antiproliferative activity against human BXPC-3 cells assessed as cell growth inhibition incubated for 72 hrs by WST-8 assay", "assay_type": "functional, cell-based"}, "[5]": {"target": "T1, von Hippel-Lindau disease tumor suppressor/L-lactate dehydrogenase A chain (Homo sapiens)", "test": "Protac activity at VHL/LDHA in human BXPC-3 cells assessed as induction of LDHA degradation at 0.3 to 3 uM incubated for 24 hrs by Western blotting analysis", "assay_type": "cell-based", "conditions": "dose 0.3-3 µM"}, "[6]": {"tested_on": "MIA PaCa-2", "test": "Antiproliferative activity against human MIA PaCa-2 cells assessed as cell growth inhibition incubated for 72 hrs by WST-8 assay", "assay_type": "functional"}, "[7]": {"target": "T2, L-lactate dehydrogenase A chain (Homo sapiens, UniProt P00338)", "test": "Inhibition of human LDHA"}, "[8]": {"target": "T3, L-lactate dehydrogenase B chain (Homo sapiens, UniProt P07195)", "T3 sequence (P07195 whole entry)": "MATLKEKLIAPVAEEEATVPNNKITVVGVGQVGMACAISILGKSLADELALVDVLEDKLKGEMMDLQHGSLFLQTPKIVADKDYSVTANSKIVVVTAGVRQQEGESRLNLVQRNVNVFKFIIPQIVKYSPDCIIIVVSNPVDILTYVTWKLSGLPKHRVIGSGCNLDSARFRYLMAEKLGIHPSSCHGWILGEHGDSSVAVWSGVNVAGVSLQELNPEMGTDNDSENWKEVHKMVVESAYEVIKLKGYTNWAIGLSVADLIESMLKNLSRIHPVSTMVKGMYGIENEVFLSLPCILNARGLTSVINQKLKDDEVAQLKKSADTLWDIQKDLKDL", "test": "Inhibition of human LDHB"}, "[9]": {"target": "T2, L-lactate dehydrogenase A chain", "test": "Inhibition of recombinant human LDHA"}, "[10]": {"target": "T3, L-lactate dehydrogenase B chain", "test": "Inhibition of recombinant human LDHB"}}, "note": "Calls of active or inactive are those of the source. The rule behind the calls is not given here."}
{"smiles": "Cc1ncsc1-c1ccc(CNC(=O)[C@@H]2C[C@@H](O)CN2C(=O)[C@@H](NC(=O)CCCCCCC(=O)NCCCCC#Cc2cccc(-c3nn(-c4nc(C(=O)O)cs4)c(CC4CC4)c3Cc3ccc(S(N)(=O)=O)cc3)c2)C(C)(C)C)cc1", "values": [{"measurement": "Activity", "setting": "[1]", "result": "Active"}]}
{"smiles": "NS(=O)(=O)c1ccc(Cc2c(-c3cccc(-c4ccccc4)c3)nn(-c3nc(C(=O)O)cs3)c2CC2CC2)cc1", "values": [{"measurement": "Activity", "setting": "[2]", "result": "inactive"}, {"measurement": "GI50", "setting": "[3]", "result": "> 30000", "unit": "nM"}, {"measurement": "inhibition", "setting": "[4]", "result": "inactive"}, {"measurement": "Activity", "setting": "[5]", "result": "inactive"}, {"measurement": "GI50", "setting": "[6]", "result": "> 30000", "unit": "nM"}]}
{"smiles": "Cc1ccc(C#Cc2cccc(-c3nn(-c4nc(C(=O)O)cs4)c(CC4CC4)c3Cc3ccc(S(N)(=O)=O)c(F)c3)c2)s1", "values": [{"measurement": "IC50", "setting": "[7]", "result": 3, "unit": "nM"}, {"measurement": "IC50", "setting": "[8]", "result": 5, "unit": "nM"}]}
{"smiles": "Cc1ncsc1-c1ccc(CNC(=O)[C@@H]2C[C@@H](O)CN2C(=O)[C@@H](NC(=O)CCCCC(=O)NCCCCC#Cc2cccc(-c3nn(-c4nc(C(=O)O)cs4)c(CC4CC4)c3Cc3ccc(S(N)(=O)=O)cc3)c2)C(C)(C)C)cc1", "values": [{"measurement": "Activity", "setting": "[1]", "result": "Active"}]}
{"smiles": "Cc1ncsc1-c1ccc(CNC(=O)[C@@H]2C[C@@H](OCc3ccccc3)CN2C(=O)[C@@H](NC(=O)CCCCCCCCCCCC(=O)NCCCCC#Cc2cccc(-c3nn(-c4nc(C(=O)O)cs4)c(CC4CC4)c3Cc3ccc(S(N)(=O)=O)cc3)c2)C(C)(C)C)cc1", "values": [{"measurement": "IC50", "setting": "[9]", "result": 2.6, "unit": "nM"}, {"measurement": "IC50", "setting": "[10]", "result": 43, "unit": "nM"}]}
{"smiles": "Cc1ncsc1-c1ccc(CNC(=O)[C@@H]2C[C@@H](O)CN2C(=O)[C@@H](NC(=O)CCCCCC(=O)NCCCCC#Cc2cccc(-c3nn(-c4nc(C(=O)O)cs4)c(CC4CC4)c3Cc3ccc(S(N)(=O)=O)cc3)c2)C(C)(C)C)cc1", "values": [{"measurement": "Activity", "setting": "[1]", "result": "Active"}]}
